“Also recorded” adds a separate entry of the source. Where two headings read alike, the source gives them in different places.
What was measured:
rise in blood sugar [1] = assay: Action to depress the rise in blood sugar after sucrose loading to mice; type: in vivo, ICR male mice; conditions: for Rise in blood sugar: average ± standard error
From the text: (Action to depress the rise in blood sugar after carbohydrate loading)
ICR male mice (weight 30-35 g) were used in proportions of 5 mice per group.
After causing the mice to fast, sucrose or starch was orally administered in a proportion of 1 g/kg to the mice of each group, and at the same time substances to be tested were orally given to mice of their corresponding groups.
Blood was collected from the retroorbital sinus of each mouse before carbohydrate loading and upon elapsed times of 30 minutes, 60 minutes and 120 minutes after the loading to determine the concentration of glucose in the blood plasma by the glucose oxidase method.

[2] = system: maltase (carbohydrase derived from rabbit small intestine mucous membrane); assay: Action to inhibit the hydrolytic activity of homogenate prepared from rabbit small intestine mucous membrane: maltase inhibition; type: biochemical; conditions: for Maltase inhibition rate: substrate maltose 20 mM, pH 6.8, 37° C., 15 minutes
Method: (§1) (Action to inhibit the hydrolytic activity of homogenate prepared from rabbit small intestine mucous membrane to carbohydrate)
(§2) A native kind of white rabbits (weight: 3.0-3.5 kg) were sacrificed by exsanguination to take out their small intestines.
(§3) After freezing and thawing the small intestines thus taken out, they were homogenized in a 5 mM EDTA buffer (pH: 7.0) and subjected to centrifugation for 60 minutes at 60,000×g. Precipitate thus formed was collected and suspended again in a 10 mM potassium phosphate buffer (pH: 7.0), thereby obtaining a crude enzyme suspension.
(§4) Sucrose (20 mM) and maltose (20 mM) were used as substrates.
(§5) Each reaction mixture was formulated so as to contain 350 microliters of a 100 mM maleate buffer (pH: 6.8), 100 microliters of a substrate solution, 50 microliters of the crude enzyme suspension and 50 microliters of a test solution. Substances to be tested were separately dissolved in a maleate buffer (pH: 6.8) before use.
(§6) Respective reactions were conducted for 15 minutes at 37° C.

[3] = target: T1, sucrase (carbohydrase derived from rabbit small intestine mucous membrane) (Oryctolagus cuniculus, UniProt P07768); assay: Action to inhibit the hydrolytic activity of homogenate prepared from rabbit small intestine mucous membrane: sucrase inhibition; type: biochemical
T1 construct: suspended again in a 10 mM potassium phosphate buffer (pH: 7.0), thereby obtaining a crude enzyme suspension; from tissue; host or cells: rabbit small intestine (title: mucous membrane), homogenate, 60,000×g precipitate
Method: as §1, §2, §3, §4, §5, §6

rise in blood sugar [4] = assay: Action to depress the rise in blood sugar after starch loading to mice; type: in vivo, ICR male mice; conditions: starch 1 g/kg; for Rise in blood sugar: average ± standard error
[5] = type: in vivo, ICR male mice
From the text: (Action to depress increase in body weight of mice)
ICR male mice after the elapse of 5 weeks from their birth were used in proportions of 10 mice per group.
Mice of a control group were caused to freely ingest the same feed as those used in the run groups except that L-arabinose was not added.
The mice of each group were separately weighed after 10 days, 20 days, 30 days and 60 days from the beginning of the ingestion to determine their weight increases from the initial weights, thereby calculating an average value of the weights increased in each group. The amounts of the feeds and water ingested were also determined.

[6] = in vivo; cited from earlier work
[7] = 0.5%, 1.0%, 2.0% in feed, during the experiment

T1 sequence (P07768 1008-1827 limits assumed): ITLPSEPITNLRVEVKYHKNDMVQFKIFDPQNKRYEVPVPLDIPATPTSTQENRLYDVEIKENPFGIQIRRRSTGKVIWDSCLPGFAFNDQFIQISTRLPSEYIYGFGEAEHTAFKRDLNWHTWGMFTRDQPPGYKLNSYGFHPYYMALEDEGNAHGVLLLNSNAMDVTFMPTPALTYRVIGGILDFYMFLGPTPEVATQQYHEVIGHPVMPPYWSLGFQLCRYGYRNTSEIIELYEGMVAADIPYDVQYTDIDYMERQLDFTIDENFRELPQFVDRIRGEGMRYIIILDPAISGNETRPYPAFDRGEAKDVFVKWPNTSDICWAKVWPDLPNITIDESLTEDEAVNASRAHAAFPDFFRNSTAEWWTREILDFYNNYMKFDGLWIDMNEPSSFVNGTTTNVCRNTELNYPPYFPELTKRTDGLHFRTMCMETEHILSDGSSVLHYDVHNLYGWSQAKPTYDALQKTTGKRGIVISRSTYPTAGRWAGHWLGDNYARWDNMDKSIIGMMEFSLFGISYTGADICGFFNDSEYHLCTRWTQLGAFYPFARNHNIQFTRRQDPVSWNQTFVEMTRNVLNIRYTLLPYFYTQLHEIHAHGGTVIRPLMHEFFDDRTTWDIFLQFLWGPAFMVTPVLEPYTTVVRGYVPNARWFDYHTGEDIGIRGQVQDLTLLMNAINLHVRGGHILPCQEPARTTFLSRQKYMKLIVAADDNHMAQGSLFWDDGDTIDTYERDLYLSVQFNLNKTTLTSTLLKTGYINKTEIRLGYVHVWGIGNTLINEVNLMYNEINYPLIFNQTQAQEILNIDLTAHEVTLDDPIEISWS
T1 sequence (P07768 2-1007 partner limits assumed): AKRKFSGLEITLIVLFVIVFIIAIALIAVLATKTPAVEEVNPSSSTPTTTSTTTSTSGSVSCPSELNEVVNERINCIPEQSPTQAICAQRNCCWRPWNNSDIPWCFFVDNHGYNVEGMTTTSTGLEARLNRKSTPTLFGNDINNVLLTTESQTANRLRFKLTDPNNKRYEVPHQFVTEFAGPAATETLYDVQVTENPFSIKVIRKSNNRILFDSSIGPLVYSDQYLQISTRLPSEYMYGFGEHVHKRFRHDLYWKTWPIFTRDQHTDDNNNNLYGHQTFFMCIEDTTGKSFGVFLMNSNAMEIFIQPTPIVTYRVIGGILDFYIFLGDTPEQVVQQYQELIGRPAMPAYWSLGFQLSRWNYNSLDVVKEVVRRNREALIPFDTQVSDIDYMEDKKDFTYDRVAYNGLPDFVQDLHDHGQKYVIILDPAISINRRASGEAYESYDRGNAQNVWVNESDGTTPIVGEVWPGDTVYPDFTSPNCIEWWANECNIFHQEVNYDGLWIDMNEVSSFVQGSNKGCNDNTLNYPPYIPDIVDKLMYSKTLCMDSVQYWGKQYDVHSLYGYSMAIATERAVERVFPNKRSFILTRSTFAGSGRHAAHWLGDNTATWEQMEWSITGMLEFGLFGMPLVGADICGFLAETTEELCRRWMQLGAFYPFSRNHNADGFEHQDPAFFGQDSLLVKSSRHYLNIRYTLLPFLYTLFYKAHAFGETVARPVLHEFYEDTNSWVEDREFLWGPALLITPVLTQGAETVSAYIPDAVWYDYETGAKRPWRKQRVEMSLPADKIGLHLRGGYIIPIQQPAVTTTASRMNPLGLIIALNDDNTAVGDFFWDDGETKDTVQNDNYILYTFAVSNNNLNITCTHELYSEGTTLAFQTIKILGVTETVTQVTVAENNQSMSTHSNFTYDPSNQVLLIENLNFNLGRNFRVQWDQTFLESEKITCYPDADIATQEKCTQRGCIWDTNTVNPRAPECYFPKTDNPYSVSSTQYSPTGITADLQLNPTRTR

O=C[C@H](O)[C@@H](O)[C@@H](O)CO [L-Arabinose, L-arabinose]
Rise in blood sugar (rise in blood sugar [1]; sucrose 1 g/kg, dose 25 mg/kg oral, after 30 min.): 71.7 Δmg/dl | Rise in blood sugar (rise in blood sugar [1]; sucrose 1 g/kg, dose 25 mg/kg oral, after 60 min.): 49.4 Δmg/dl | Rise in blood sugar (rise in blood sugar [1]; sucrose 1 g/kg, dose 50 mg/kg oral, after 30 min.): 62.9 Δmg/dl | Rise in blood sugar (rise in blood sugar [1]; sucrose 1 g/kg, dose 50 mg/kg oral, after 60 min.): 37.3 Δmg/dl | Rise in blood sugar (rise in blood sugar [1]; sucrose 1 g/kg, dose 50 mg/kg oral, after 120 min.): 21.5 Δmg/dl | Rise in blood sugar (rise in blood sugar [1]; sucrose 1 g/kg, dose 100 mg/kg oral, after 30 min.): 41.8 Δmg/dl | Rise in blood sugar (rise in blood sugar [1]; sucrose 1 g/kg, dose 100 mg/kg oral, after 60 min.): 30.4 Δmg/dl | Rise in blood sugar (rise in blood sugar [1]; sucrose 1 g/kg, dose 100 mg/kg oral, after 120 min.): 20.3 Δmg/dl | action to depress the rise in blood sugar due to sucrose loading (in words) (rise in blood sugar [1]; sucrose 1 g/kg, orally 25, 50 and 100 mg/kg (L-arabinose, D-xylose) or 100 mg/kg (others)): depressed in dependence on the dose | action to depress the rise in blood sugar for sucrose or starch loading (in words) (rise in blood sugar [1]; sucrose or starch loading, summary statement): remarkably effective in depressing the rise in blood sugar after carbohydrate loading; also recorded: effective action to depress the rise in blood sugar | maltase-inhibiting action (in words) [2]: strong sucrase-inhibiting action and maltase-inhibiting action | Maltase inhibition rate ([2]; 25 mg/dl): 28.5% | Maltase inhibition rate ([2]; 50 mg/dl): 35.8% | Maltase inhibition rate ([2]; 100 mg/dl): 45.7% | Maltase inhibition rate ([2]; 200 mg/dl): 47.4% | sucrase-inhibiting action (in words) [3]: strong sucrase-inhibiting action | inhibition at 250 µg/mL ([3]; 0.25 h, 25 mg/dl, substrate sucrose 20 mM, pH 6.8, 37° C., 15 minutes, read-out: Sucrase inhibition rate): 25.3% | inhibition at 500 µg/mL ([3]; 0.25 h, 50 mg/dl, substrate sucrose 20 mM, pH 6.8, 37° C., 15 minutes, read-out: Sucrase inhibition rate): 37.8% | inhibition at 1000 µg/mL ([3]; 0.25 h, 100 mg/dl, substrate sucrose 20 mM, pH 6.8, 37° C., 15 minutes, read-out: Sucrase inhibition rate): 52% | inhibition at 2000 µg/mL ([3]; 0.25 h, 200 mg/dl, substrate sucrose 20 mM, pH 6.8, 37° C., 15 minutes, read-out: Sucrase inhibition rate): 66.3% | depressing action on the rise in blood sugar due to starch loading (in words) (rise in blood sugar [4]): depressing action on the rise in blood sugar due to starch loading in dependence on the dose | Rise in blood sugar (rise in blood sugar [4]; dose 25 mg/kg oral, after 30 min.): 91.1 Δmg/dl | Rise in blood sugar (rise in blood sugar [4]; dose 25 mg/kg oral, after 60 min.): 68.5 Δmg/dl | Rise in blood sugar (rise in blood sugar [4]; dose 25 mg/kg oral, after 120 min.): 29.8 Δmg/dl | Rise in blood sugar (rise in blood sugar [4]; dose 50 mg/kg oral, after 30 min.): 71.4 Δmg/dl | Rise in blood sugar (rise in blood sugar [4]; dose 50 mg/kg oral, after 60 min.): 54.6 Δmg/dl | Rise in blood sugar (rise in blood sugar [4]; dose 100 mg/kg oral, after 30 min.): 59.6 Δmg/dl | Rise in blood sugar (rise in blood sugar [4]; dose 100 mg/kg oral, after 60 min.): 48.3 Δmg/dl | Rise in blood sugar (rise in blood sugar [4]; dose 100 mg/kg oral, after 120 min.): 24.6 Δmg/dl | Weight increase ([5]; 0.5% in feed (Group 1 / A1), after 10 days): 5.9 g | Weight increase ([5]; 0.5% in feed (Group 1 / A1), after 20 days): 9.2 g | Weight increase ([5]; 0.5% in feed (Group 1 / A1), after 30 days): 12.4 g | Weight increase ([5]; 0.5% in feed (Group 1 / A1), after 60 days): 15.0 g | death [5, 7]: no death at all | general medical condition and behavior [5, 7]: no abnormality in general medical condition and behavior | weight increase compared with control group (in words) ([5]; 0.5%, 1.0%, 2.0% in feed, up to 60 days): less weight increases compared with the mice of the control group | Weight increase ([5]; 1.0% in feed (Group 2 / A2), after 10 days): 5.3 g | Weight increase ([5]; 1.0% in feed (Group 2 / A2), after 20 days): 8.0 g | Weight increase ([5]; 1.0% in feed (Group 2 / A2), after 30 days): 11.7 g | Weight increase ([5]; 1.0% in feed (Group 2 / A2), after 60 days): 13.8 g | Weight increase ([5]; 2.0% in feed (Group 3 / A3), after 10 days): 4.7 g | Weight increase ([5]; 2.0% in feed (Group 3 / A3), after 20 days): 7.2 g | Weight increase ([5]; 2.0% in feed (Group 3 / A3), after 30 days): 10.2 g | Weight increase ([5]; 2.0% in feed (Group 3 / A3), after 60 days): 12.1 g | uptake from the digestive tract [6]: hard to be taken up from the digestive tract

From patent US5468734A, “Prophylactic and remedial preparation for diseases attendant on hyperglycemia, and wholesome food” (Godo Shusei Co., Ltd., priority 1992, dated 1995)
